Measurements as given in US12247216B2, “Pluripotent cell aggregates and use thereof” (ALEPH FARMS LTD., priority 2019, dated 2025).

Test system: bESC lines Alp 0501 and Alp 0505
Test: bESC differentiation to mesoderm, qPCR of Oct4 and Brachyury
Format: cell-based, bovine
Details: 8 μM CHIR 99021 added to Essential 6 medium, aggregates expanded three days, FIG. 5
Experimental: Quantitative PCR (qPCR) analysis was performed as follows: • 1. Total RNA was extracted from the cells using GeneJET RNA purification kit (Thermo Fisher Scientific). • 2. Reverse transcription was carried out with RevertAid First Strand cDNA Synthesis Kit (Thermo Fisher Scientific). 3. Quantitative PCR (qPCR) was performed to analyze expression of specific genes using specific primers designed for use in probe-based detection method. • 4. All expression data were normalized to beta-actin. Relative quantification of fold change was calculated using the comparative Ct (ΔΔCt) method. Initial differentiation of bESC to mesoderm: • 1. Cells were harvested and seeded for aggregates formation in 6-well plates as detailed in example 4 below. • 2. The initial conditions were: • a. bESC in the growth medium mTeSR1 (StemCell technologies) • b. bESC in the growth medium Essential 8 (Thermo Fisher Scientific) • 3. Four days after seeding, the medium was replaced to form the following conditions: • a. Medium of bESC aggregates formed in mTeSR1 remained. • b. Medium of bESC aggregates formed in Essential 8 medium was replaced to Essential 6 medium (Thermo Fisher Scientific) • Or— • c. Medium of bESC aggregates formed in Essential 8 medium was replaced to Essential 6 supplemented with 8 μM CHIR 99021. • 4. […]

## Cc1cnc(-c2cnc(NCCNc3ccc(C#N)cn3)nc2-c2ccc(Cl)cc2Cl)[nH]1 [CHIR 99021, 6-[[2-[[4-(2,4-Dichlorophenyl)-5-(5-methyl-1H-imidazol-2-yl)-2-pyrimidinyl]amino]ethyl]amino]-3-pyridinecarbonitrile]
  Brachyury expression (initial mesoderm marker): increase
  Oct4 expression (pluripotency marker): additional decrease
